Results taken from ChEMBL document CHEMBL2384960, “Anti-inflammatory secondary metabolites from the leaves of Rosa laevigata” (Bioorg Med Chem, 2013).
pIC50: −log10 of the molar value. Calls of active or inactive are those of the source. The rule behind the calls is not given here.

Columns and labels:
[1] = system: RAW264.7; assay: Cytotoxicity against mouse RAW264.7 cells up to 50 ug/ml after 24 hrs by MTT assay in presence of LPS; assay type: cell-based; settings: raw264.7, 24 h
[2] = system: RAW264.7; assay: Antiinflammatory activity in mouse RAW264.7 cells assessed as inhibition of LPS-induced IL-10 release at 0.5 to 100 ug/ml incubated for 4 hrs prior to LPS challenge measured after 24 hrs by ELISA; assay type: functional, cell-based
[3] = system: RAW264.7; assay: Antiinflammatory activity in mouse RAW264.7 cells assessed as inhibition of LPS-induced IL-6 release at 0.5 to 100 ug/ml incubated for 4 hrs prior to LPS challenge measured after 24 hrs by ELISA; assay type: functional, cell-based
[4] = (§1) Inhibition of LPS-induced NF-kappaB activation in HEK293 cells incubated for 4 hrs prior to LPS challenge measured after 48 hrs by luciferase reporter gene assay; assay type: cell-based; settings: Homo sapiens
[5] = system: HEK293; assay: as §1; assay type: cell-based; settings: Homo sapiens
[6] = system: RAW264.7; assay: Antiinflammatory activity in mouse RAW264.7 cells assessed as inhibition of LPS-induced IL-1beta release at 0.5 to 100 ug/ml incubated for 4 hrs prior to LPS challenge measured after 24 hrs by ELISA; assay type: functional, cell-based
[7] = system: RAW264.7; assay: Antiinflammatory activity in mouse RAW264.7 cells assessed as inhibition of LPS-induced TNF-alpha release at 0.5 to 100 ug/ml incubated for 4 hrs prior to LPS challenge measured after 24 hrs by ELISA; assay type: functional, cell-based
[8] = system: RAW264.7; assay: Antiinflammatory activity in mouse RAW264.7 cells assessed as inhibition of LPS-induced IL-10 release incubated for 4 hrs prior to LPS challenge measured after 24 hrs by ELISA; assay type: functional, cell-based
[9] = system: RAW264.7; assay: Antiinflammatory activity in mouse RAW264.7 cells assessed as inhibition of LPS-induced TNF-alpha release incubated for 4 hrs prior to LPS challenge measured after 24 hrs by ELISA; assay type: functional, cell-based
[10] = system: RAW264.7; assay: Antiinflammatory activity in mouse RAW264.7 cells assessed as inhibition of LPS-induced IL-6 release incubated for 4 hrs prior to LPS challenge measured after 24 hrs by ELISA; assay type: functional, cell-based
[11] = system: RAW264.7; assay: Antiinflammatory activity in mouse RAW264.7 cells assessed as inhibition of LPS-induced IL-1beta release incubated for 4 hrs prior to LPS challenge measured after 24 hrs by ELISA; assay type: functional, cell-based

Row | pIC50 [4] | pIC50 [8] | pIC50 [9] | pIC50 [10] | pIC50 [11] | Structure (SMILES) | Activity [1] | inhibition [2] | inhibition [3] | inhibition [5] | inhibition [6] | inhibition [7]
1 | 4.18 | – | – | – | – | C[C@]1(CO)CC[C@]2(C(=O)O[C@@H]3O[C@H](CO)[C@@H](O)[C@H](O)[C@H]3O)CC[C@]3(C)C(=C2C1)CC[C@@H]1[C@@]2(C)C[C@@H](O)[C@H](O)[C@@](C)(CO)[C@@H]2CC[C@]13C | Non-toxic | Active | Active | Dose-dependent effect | Active | Active
2 | 4.63 | 4.98 | 4.84 | 5.09 | 5.07 | C[C@@H]1CC[C@]2(C(=O)O)CC[C@]3(C)C(=CC[C@@H]4[C@@]5(C)C[C@@H](O)[C@@H](O)[C@@](C)(CO)[C@@H]5CC[C@]43C)[C@@H]2[C@]1(C)O | Non-toxic | Active | Active | Dose-dependent effect | Active | Active
3 | 3.76 | – | – | – | – | C[C@@H]1CC[C@]2(C(=O)O)CC[C@]3(C)C(=CC[C@@H]4[C@@]5(C)C[C@@H](O)[C@@H](O)C(C)(C)[C@@H]5CC[C@]43C)[C@@H]2[C@]1(C)O [EUSCAPHIC ACID] | Non-toxic | – | – | Dose-dependent effect | – | –
4 | 4.10 | – | – | – | – | C[C@@H]1CC[C@]2(C(=O)O)CC[C@]3(C)C(=CC[C@@H]4[C@@]5(C)C[C@@H](O)[C@H](O)[C@@](C)(CO)[C@@H]5CC[C@]43C)[C@@H]2[C@]1(C)O | Non-toxic | Active | Active | Dose-dependent effect | Active | Active
